Assay results: article PMC4513247 (Molecular pharmacology, 2010)
Like-named read-outs stand apart in the source and are kept apart here.

What was measured:
SERT^WT = SERT^WT (Homo sapiens, UniProt P31645); format: binding
DAT [1] = molecular target: T1, DAT (Homo sapiens, UniProt Q01959); settings: DAT versus SERT; no reference given; cited from earlier work
NET = NET versus SERT; no reference given; cited from earlier work
NCCc1c[nH]c2ccc(O)cc12 = assay: cells, lysate or membranes; settings: other: SERT^WT; [3H]5-HT saturation uptake, HEK293 cells
DAT [2] = molecular target: T1, DAT; format: binding; settings: ~10 nM [3H]WIN35,428, fixed concentrations of carbamazepine
[3] = SERT, ~2 nM [3H]imipramine, fixed concentrations of carbamazepine

Chain of SERT^WT (P31645 whole entry): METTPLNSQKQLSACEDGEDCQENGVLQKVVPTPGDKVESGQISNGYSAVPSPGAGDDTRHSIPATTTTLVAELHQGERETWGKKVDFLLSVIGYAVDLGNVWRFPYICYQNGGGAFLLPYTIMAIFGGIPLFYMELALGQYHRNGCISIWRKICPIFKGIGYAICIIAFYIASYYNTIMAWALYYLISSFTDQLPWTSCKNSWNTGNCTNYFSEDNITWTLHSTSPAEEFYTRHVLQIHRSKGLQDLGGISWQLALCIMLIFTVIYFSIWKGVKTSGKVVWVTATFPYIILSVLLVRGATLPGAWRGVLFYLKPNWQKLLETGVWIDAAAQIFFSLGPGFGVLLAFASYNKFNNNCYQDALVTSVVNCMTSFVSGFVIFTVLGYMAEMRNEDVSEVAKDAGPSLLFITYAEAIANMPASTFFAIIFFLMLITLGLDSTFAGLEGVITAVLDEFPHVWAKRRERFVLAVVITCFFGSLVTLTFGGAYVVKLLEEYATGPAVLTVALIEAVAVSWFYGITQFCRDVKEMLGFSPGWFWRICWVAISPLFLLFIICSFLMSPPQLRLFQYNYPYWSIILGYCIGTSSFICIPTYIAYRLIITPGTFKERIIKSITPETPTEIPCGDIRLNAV
T1 sequence (Q01959 whole entry, species assumed): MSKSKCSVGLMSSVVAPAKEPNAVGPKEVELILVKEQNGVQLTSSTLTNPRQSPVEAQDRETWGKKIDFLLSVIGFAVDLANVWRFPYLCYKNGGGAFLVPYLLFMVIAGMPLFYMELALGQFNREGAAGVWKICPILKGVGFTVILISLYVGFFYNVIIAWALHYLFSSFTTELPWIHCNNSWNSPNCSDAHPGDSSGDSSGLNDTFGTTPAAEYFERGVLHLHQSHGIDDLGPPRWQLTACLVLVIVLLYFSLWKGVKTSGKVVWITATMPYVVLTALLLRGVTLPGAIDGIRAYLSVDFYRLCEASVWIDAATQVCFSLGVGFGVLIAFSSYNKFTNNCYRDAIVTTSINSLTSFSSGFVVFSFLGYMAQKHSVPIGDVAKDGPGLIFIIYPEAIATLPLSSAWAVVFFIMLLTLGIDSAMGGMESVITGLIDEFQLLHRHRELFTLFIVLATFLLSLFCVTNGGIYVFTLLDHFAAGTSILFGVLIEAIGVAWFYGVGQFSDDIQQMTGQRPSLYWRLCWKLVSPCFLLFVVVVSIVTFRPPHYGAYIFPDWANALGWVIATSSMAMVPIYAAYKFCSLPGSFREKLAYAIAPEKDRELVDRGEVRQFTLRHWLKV

CN[C@@H](C)Cc1ccc2c(c1)OCO2 [MDMA, s-(+)-3,4-methylenedioxy-methamphetamine]
binding together with carbamazepine (Dixon plot of [3H]imipramine binding) (SERT^WT): mutually exclusive

CN(C)CCCN1c2ccccc2CCc2ccccc21 [imipramine]
affinity lower than for SERT (DAT [1]): ~1000 fold
affinity lower than for SERT (NET): approximately 10 fold

CC(N)Cc1ccc(Cl)cc1 (stereo not shown) [para-chloroamphetamine]
binding together with carbamazepine (Dixon plot of [3H]imipramine binding) (SERT^WT; [3]): mutually exclusive

SERT^WT (Homo sapiens)
Km (NCCc1c[nH]c2ccc(O)cc12): 1.2 ± 0.8 µM

ibogaine
binding together with carbamazepine (Dixon plot of [3H]imipramine binding) (SERT^WT; [3]): intersected
binding together with carbamazepine (Dixon plot of [3H]WIN35,428 binding) (DAT [2]): intersected
